Data taken from patent US10906876B2, “Tetrahydroisoquinolines as selective NADPH oxidase 2 inhibitors” (University of Pittsburgh—Of the Commonwealth System of …, priority 2013, dated 2021).

Molecular target: T1, Nox5 (Homo sapiens, UniProt Q96PH1)
T1 construct: expressed in transfected cells; host or cells: HEK-Nox5 cells (gift of D. Fulton)
T1 sequence (Q96PH1 19-737 isoform Q96PH1-3 limits assumed): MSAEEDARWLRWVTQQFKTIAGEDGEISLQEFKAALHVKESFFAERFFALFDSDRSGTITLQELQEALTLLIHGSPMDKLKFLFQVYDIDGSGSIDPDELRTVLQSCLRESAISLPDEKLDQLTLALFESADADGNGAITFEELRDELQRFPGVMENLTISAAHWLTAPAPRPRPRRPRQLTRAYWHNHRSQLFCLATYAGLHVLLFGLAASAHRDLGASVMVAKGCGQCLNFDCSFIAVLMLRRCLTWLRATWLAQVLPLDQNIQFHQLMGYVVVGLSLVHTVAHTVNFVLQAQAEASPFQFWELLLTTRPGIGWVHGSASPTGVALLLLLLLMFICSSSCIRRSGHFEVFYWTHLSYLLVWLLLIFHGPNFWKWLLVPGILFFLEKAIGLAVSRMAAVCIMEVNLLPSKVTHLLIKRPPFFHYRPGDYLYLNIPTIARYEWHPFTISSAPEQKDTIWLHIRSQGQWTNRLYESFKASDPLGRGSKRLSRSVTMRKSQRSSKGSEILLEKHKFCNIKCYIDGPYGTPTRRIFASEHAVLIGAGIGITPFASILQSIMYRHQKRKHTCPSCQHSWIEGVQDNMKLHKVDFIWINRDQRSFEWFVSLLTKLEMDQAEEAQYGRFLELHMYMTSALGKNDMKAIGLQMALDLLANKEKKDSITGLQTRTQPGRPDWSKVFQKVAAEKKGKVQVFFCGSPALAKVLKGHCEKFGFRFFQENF
Experiment: Nox5 activity in HEK-Nox5 cells, L-012 assay
Format: cell-based
Settings: for IC50: HEK-Nox5 cells stimulated with 1 μM PMA and 0.5 ionomycin, L-012, read-out: IC50 of ROS generation, Nox5 (L-012 assay); for Nox5 inhibitory activity: Table 2
Excerpt: All cell culture reagents were obtained from Invitrogen, unless indicated. COS-22 (COS-7 cells stably expressing human p22^phox) and COS-Nox2 (a.k.a. COS-phox) cells (COS-7 cells stably expressing human p22^phox, Nox2, p47^phox and p67^phox) were kindly provided by Dr. Mary C. Dinauer (Indiana University, School of Medicine) (Price et al., Blood, 2002, 99:2653-2661). COS-22 cells were maintained in Dulbecco's Modified Eagle Medium (DMEM) with 4.5 g/L glucose, L-glutamine and sodium pyruvate containing 10% heat-inactivated fetal bovine serum (FBS), 100 units/ml penicillin and 100 μg/ml streptomycin (complete media) supplemented with 1.8 mg/ml G418 (Calbiochem/EMB Bioscience, Gibbstown, N.J.). COS-Nox2 cells were maintained in complete media supplemented with 1.8 mg/mL G418, 1 μg/mL puromycin (Sigma, St Louis, Mo.) and 0.2 mg/mL hygromycin B (Invitrogen, Carlsbad, Calif.). HEK-Nox5 cells were kindly provided by Dr. David Fulton (Georgia Health Sciences University) and maintained in complete media.
COS-Nox2, COS-Nox1/NOXO1/NOXA1, HEK-Nox5 and COS-22 cells were re-plated in OPTIMEM into 384-well white micro-plates (Greiner-Bio One GmbH, Germany) at a density of 2.5×10^3 cells/well for COS-Nox2 and 5×10^4 cells/well for all others. The cells were incubated at 37° C. in PBS containing 400 μm L-012 for 10 min. […] Since Nox1 was constitutively active, Nox1-derived O2^•− was assessed by comparison to non-transfected cells (Cos22). Luminescence was quantified over time using a Biotek Synergy 4 Hybrid Multi-Mode Microplate Reader. The specificity of L-012 for O2^•− was confirmed by the addition of SOD (150 U/mL).
All data are expressed as means±SEM. IC50 values were determined using the GraphPad Prism software (GraphPad Software, San Diego, Calif.) for non-linear regression three-parameters, with constrain values of 100 and 0 for top and bottom, respectively, and assumes a Hill slope of 1.

C=C(C)CC1C2c3c(Br)cccc3C(CC2(C)C)N1S(C)(=O)=O (racemic) [Compound 14a, (±)-(1S,4R,9S)-5-Bromo-3,3-dimethyl-9-(2-methylallyl)-10-(methylsulfonyl)-1,2,3,4-tetrahydro-1,4-(epiminomethano)naphthalene] was tested, and the IC50 was > 100 µM.

With C=C(C)CC1C2c3c(-c4ccc(Cl)c(Cl)c4)cccc3C(CC2(C)C)N1Cc1ccc2c(c1)OCO2 (racemic) [Compound 12b, (±)-(1S,4R,9S)-10-(Benzo[d][1,3]dioxol-5-ylmethyl)-5-(3,4-dichlorophenyl)-3,3-dimethyl-9-(2-methylallyl)-1,2,3,4-tetrahydro-1,4-(epiminomethano)-naphthalene] the IC50 was > 100 µM.

In the case of C=C(C)CC1C2c3c(Br)cccc3C(CC2(C)C)N1S(=O)(=O)c1ccc(F)cc1 (racemic) [Compound 14b, (±)-(1S,4R,9S)-5-Bromo-10-((4-fluorophenyl)sulfonyl)-3,3-dimethyl-9-(2-methylallyl)-1,2,3,4-tetrahydro-1,4-(epiminomethano)naphthalene], the IC50 is reported as > 100 µM.

C=C(C)CC1C2c3c(Br)cccc3C(CC2(C)C)N1Cc1cccs1 (racemic) [Compound 11h, (±)-(1S,4R,9S)-5-Bromo-3,3-dimethyl-9-(2-methylallyl)-10-(thiophen-2-ylmethyl)-1,2,3,4-tetrahydro-1,4-(epiminomethano)naphthalene] was tested, and the IC50 was > 100 µM and the “Nox5 inhibitory activity” value was “virtually no effect”.

With C=C(C)CC1C2c3ccccc3C(CC2(C)C)N1Cc1cccc(F)c1 (racemic) [Compound 11a, (±)-(1S,4R,9S)-10-(3-Fluorobenzyl)-3,3-dimethyl-9-(2-methylallyl)-1,2,3,4-tetrahydro-1,4-(epiminomethano)naphthalene] the IC50 was 50 ± 9 µM and the “Nox5 inhibitory activity” value was “inhibited”.

C=C(C)CC1NC2CC(C)(C)C1c1c(-c3ccc(Cl)c(Cl)c3)cccc12 (racemic) [Compound 12a, (±)-(1S,4R,9S)-5-(3,4-Dichlorophenyl)-3,3-dimethyl-9-(2-methylallyl)-1,2,3,4-tetrahydro-1,4-(epiminomethano)naphthalene] was tested, and the IC50 was 14 ± 0.6 µM and the “Nox5 inhibitory activity” value was “comparable”.

With C=C(C)CC1NC2CC(C)(C)C1c1ccccc12 (racemic) [Compound 8, (±)-(1S,4R,9S)-3,3-Dimethyl-9-(2-methylallyl)-1,2,3,4-tetrahydro-1,4-(epiminomethano)-naphthalene] the IC50 was > 100 µM and the “Nox5 inhibitory activity” value was “inactive”.

With C=C(C)CC1C2c3c(Br)cccc3C(CC2(C)C)N1Cc1ccc2c(c1)OCO2 (racemic) [Compound 11d, (±)-(1S,4R,9S)-10-(Benzo[d][1,3]dioxol-5-ylmethyl)-5-bromo-3,3-dimethyl-9-(2-methylallyl)-1,2,3,4-tetrahydro-1,4-(epiminomethano)naphthalene] the IC50 was > 100 µM.

For CC(C)CC1NC2CC(C)(C)C1c1c(Br)cccc12 (racemic) [Compound 13], the IC50 was 18 ± 1 µM and the “Nox5 inhibitory activity” value was “retained inhibitory activity”.

C=C(C)CC1C2c3c(Br)cccc3C(CC2(C)C)N1CCCCC (racemic) [Compound 11g, (±)-(1S,4R,9S)-5-Bromo-3,3-dimethyl-9-(2-methylallyl-10-pentyl-1,2,3,4-tetrahydro-1,4-(epiminomethano)naphthalene] was tested, and the IC50 was > 100 µM and the “Nox5 inhibitory activity” value was “virtually no effect”.

With C=C(C)CC1C2c3c(Br)cccc3C(CC2(C)C)N1Cc1cccc(F)c1 (racemic) [Compound 11f, (±)-(1S,4R,9S)-5-Bromo-10-(3-fluorobenzyl)-3,3-dimethyl-9-(2-methylallyl)-1,2,3,4-tetrahydro-1,4-(epiminomethano)naphthalene] the IC50 was 79 ± 30 µM and the “Nox5 inhibitory activity” value was “inhibited”.

With C=C(C)CC1C2c3c(Br)cccc3C(CC2(C)C)N1Cc1ccnc2ccccc12 (racemic) [Compound 11b, (±)-(1S,4R,9S)-5-Bromo-3,3-dimethyl-9-(2-methylallyl)-10-(quinolin-4-ylmethyl)-1,2,3,4-tetra-hydro-1,4-(epiminomethano)naphthalene] the IC50 was > 100 µM.

For C=C(C)CC1NC2CC(C)(C)C1c1c(Br)cccc12 (racemic) [Compound 7, (±)-(1S,4R,9S)-5-Bromo-3,3-dimethyl-9-(2-methylallyl)-1,2,3,4-tetrahydro-1,4-(epimino-methano)-naphthalene], the IC50 was 20 ± 3.1 µM and the “Nox5 inhibitory activity” value was “active”.

For C=C(C)CC1C2c3c(Br)cccc3C(CC2(C)C)N1Cc1cc(C)on1 (racemic) [Compound 11e, (±)-3-(1S,4R,9S)-5-Bromo-3,3-dimethyl-9-(2-methylallyl)-1,2,3,4-tetrahydro-1,4-(epimino-methano) naphthalen-10-yl)methyl)-5-methylisoxazole], the IC50 was 31 ± 11 µM and the “Nox5 inhibitory activity” value was “inhibited”.

In the case of C=C(C)CC1C2c3c(Br)cccc3C(CC2(C)C)N1Cc1c[nH]c2ccccc12 (racemic) [Compound 11c, (±)-(1S,4R,9S)-10-((1H-Indol-3-yl)methyl)-5-bromo-3,3-dimethyl-9-(2-methylallyl)-1,2,3,4-tetrahydro-1,4-(epiminomethano)naphthalene], the IC50 is reported as > 100 µM.

For C=C(C)C[C@@H]1N[C@H]2CC(C)(C)[C@@H]1c1c(Br)ccc(Br)c12 [Compound 9], the IC50 was 36 µM and the “Nox5 inhibitory activity” value was “active”.

With C=C(C)CC1C2c3c(-c4ccc(Cl)c(Cl)c4)cccc3C(CC2(C)C)N1CCCCC (racemic) [Compound 12c] the IC50 was > 100 µM.
